In US11654159B2, “Therapeutic use of electroacupuncture-induced mesenchymal stem cells” (UNIVERSITY OF FLORIDA RESEARCH FOUNDATION, INC., priority 2016, dated 2023):

Assays:
[1] = system: MSCs (Lin− CD90+CD44hi cells); assay: Pharmacological disinhibition of the dorsomedial regions of the tuberal hypothalamus: blood cells by flow cytometry; type: in vivo, rat; conditions: rats
Method: Adult male Sprague-Dawley rats (300-350 g; Harlan Laboratories, Indianapolis, Ind.), were housed in plastic cages under standard environmental conditions (22° C.; 12/12 light/dark cycle; lights on at 7:00 A.M.) for 7-10 days prior to the surgical manipulations. Food and water were provided ad libitum. All experiments were conducted in accordance with the Guide for the Care and Use of Laboratory Animals, 8th Edition (Institute for Laboratory Animal Research, The National Academies Press, Washington, D.C., 2011) and the guidelines of the IUPUI Institutional Animal Care and Use Committee.
Once rats were anesthetized with an isoflurane system (MGX Research Machine; Vetamic, Rossville, Ind.), they were placed in a small animal stereotaxic frame (Model 963 Ultra Precise Frame, Kopf, Tujunga, Calif.). […]

[2] = system: MSCs; assay: Propranolol pretreatment before EA: MSC mobilization; type: in vivo, mice
Text: Blood was collected and processed for flow cytometry as described below.

[3] = system: rat MSCs (Lin− CD90+CD44hi cells); conditions: rats
Method: (§1) Sprague-Dawley rats were injected with epinephrine (SO, El Monte, Ca) intraperitoneally at 50 μg/kg. Uninjected rats were used as baseline controls. Rats were euthanized at 2, 4, and 6 hours post injection. Blood was collected and processed for flow cytometry as described below. A separate cohort of rats was injected IP with 50 mg/kg dopamine for 4 days consecutively. After last injection, rats were euthanized at 2 and 4 hours post injection. Blood was collected and processed for flow cytometry as described below.
PBMCs were isolated using lympholyte M (Cedarlene, Ontario, Canada) density gradient separation and centrifuged at room temperature at 740×g for 30 minutes.
PBMCs were stained with the MPFC protocols in real-time within 24 h after blood collection at the Angio BioCore, IUPUI, for the identification of MSCs as previously described.^50-53 23 PBMCs were incubated with Fc blocking reagent (Miltenyi Biotec or BD biosciences) for 10 minutes on ice and stained as published^50. Cells were incubated with titrated antibodies for 30 minutes at 4° C., washed twice in PBS with 2% FBS, fixed in 1% paraformaldehyde (Tousimis, Rockville, Md.), and run on a BD LSRII flow cytometer (BD) equipped with a 405 nm violet laser, 488 nm blue laser and 633 nm red laser. Data were acquired uncompensated and exported as FCS 3.0 files, and analyzed utilizing FlowJo software, version 9.7.5 or version X (Tree Star, Inc, Ashland, Oreg.). “Fluorescent minus one” (FMO) gating controls were used to ensure proper gating of positive events^50,52,54. In order to resolve the rare and/or dim populations of interest, specific antigen and fluorochrome conjugate coupling was optimized for the six-antibody plus a viability marker staining panel^50-54. BD compBeads (BD Biosciences) were used for color compensations.
Rat MSC were gated sequentially on FMO gates for LIVE/DEAD^−CD45^−erythroid cells^−CD31^−CD11b^− CD90^+CD44H^+ cells.

[4] = system: plasma NE; conditions: rats
Method: as §1
NE levels were measured in EA-treated horses using NE ELISA kit (ALPCO™, Salem, N.H.) according to the manufacturer's instructions. Plasma NE, Epi and DA levels were measured in EA treated rats using the TriCAT ELISA kit (ALPCO™).

## C[N+]1(C)CCc2cc3c(cc2[C@H]1[C@@H]1OC(=O)c2c1ccc1c2OCO1)OCO3.[I-] [bicuculline methiodide]
[1]; 30 pmol into tuberal hypothalamus, p=0.412
  total number of cells in the blood: did not alter
[1]; highest dose 50 pmol, 4 hours post injection, p=0.027
  percentage of MSCs (Lin− CD90+CD44hi cells): did increase

## CC(C)NCC(O)COc1cccc2ccccc12 (stereo not drawn) [propranolol]
[2]; mice pretreated for 24 hours prior to EA, p<0.01
  mobilization of MSCs by EA: prevented
[2]; pretreatment, at 4 hours, compared to untreated animals, p=0.01
  MSC mobilization by EA: inhibited

## NCCc1ccc(O)c(O)c1 [dopamine]
[3]; dopamine IP
  time of increase in circulating MSCs: 2 h
[4]; dopamine 50 mg/kg for 4 consecutive days
  NE levels: pointed increase
[4]; dopamine IP
  time of peak in plasma NE concentration post administration: 2 h

## CNC[C@H](O)c1ccc(O)c(O)c1 [epinephrine]
[3]; epinephrine 50 μg/kg intraperitoneally, vs uninjected baseline, p=0.0125
  MSCs in peripheral blood: significant elevation
[3]; epinephrine IP
  time of increase of rat MSCs in the circulation: 6 h
